Target: SpGalNAc-T2 (Strongylocentrotus purpuratus, UniProt A0A7M7T5A5)
Assay: GalNAc transfer to peptide acceptors, radioactivity (dpm/3hr)
Assay type: biochemical
Conditions: acceptor peptides EA2, MUC5AC, MUC5AC-3, MUC5AC-13, MUC5AC-3/-13, SpDelta, SpNotch, 37°C, donor not given

Chain of SpGalNAc-T2 (A0A7M7T5A5 37-564): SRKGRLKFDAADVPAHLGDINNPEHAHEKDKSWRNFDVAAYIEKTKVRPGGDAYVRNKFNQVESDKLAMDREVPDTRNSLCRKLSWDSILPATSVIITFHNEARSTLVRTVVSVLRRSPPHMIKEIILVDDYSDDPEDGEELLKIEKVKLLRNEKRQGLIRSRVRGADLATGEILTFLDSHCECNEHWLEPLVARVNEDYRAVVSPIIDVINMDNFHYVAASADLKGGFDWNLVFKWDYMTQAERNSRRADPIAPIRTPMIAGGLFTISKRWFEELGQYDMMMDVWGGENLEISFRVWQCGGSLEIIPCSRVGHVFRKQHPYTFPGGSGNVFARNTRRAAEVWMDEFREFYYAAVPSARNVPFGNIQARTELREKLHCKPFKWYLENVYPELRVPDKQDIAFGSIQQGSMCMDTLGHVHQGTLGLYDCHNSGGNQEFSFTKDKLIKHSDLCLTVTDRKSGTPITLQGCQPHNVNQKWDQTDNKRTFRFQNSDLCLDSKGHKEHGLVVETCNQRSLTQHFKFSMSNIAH

## CC(=O)N[C@H]1[C@@H](OP(=O)(O)OP(=O)(O)OC[C@H]2O[C@@H](n3ccc(=O)[nH]c3=O)[C@H](O)[C@@H]2O)O[C@H](CO)[C@H](O)[C@@H]1O [UDP-GalNAc]
  GalNAc transfer to peptide acceptors, radioactivity (dpm/3hr): GalNAc-T activity was observed for SpGalNAc-T1, SpGalNAc-T2, SpGalNAc-T7, SpGalNAc-T7-1, and SpGalNAc-T7-2
